The values that follow come from US10874108B2, “Anti-microbial compositions” (5D HEALTH PROTECTION GROUP LTD, priority 2016, dated 2020).

The nature of data set [1]: Displacement of metals from EDTA complexes by physiological saline. Format: physicochemical. The procedure: Adding saline to the suspension of Ag4(EDTA), the suspension quickly precipitated a solid (AgCl). The precipitate was filtered off, washed with deionized water 4 times; and then dried in a vacuum oven at 50° C. in a dark flask to avoid exposure to direct light.
The displacement experiment described above was repeated for compounds 1-4 to provide the percent of the displacement of silver, copper, zinc from the EDTA complexes by physiological saline.

For data set [2], the system named is S. aureus 24-hour CDC biofilms. Description: Colonies after exposure of 24-hour CDC biofilms to EDTA compounds. Format: cell-based.
For data set [3], the system named is P. aeruginosa 24-hour CDC biofilms. Described as above. Format: cell-based.
A further data set concerns P. aeruginosa biofilms. Description: CDC bioreactor biofilm LR/kill, EDTA compounds at 100 ppm silver. Format: cell-based. Particulars: 100 ppm of silver, exposed 24 hours. The method, then: (§1) Microbial cultures were exposed to compounds for 24 hours. Compounds were diluted according to 100 ppm of silver. Biofilms were formed using the CDC bioreactor. Samples were performed in triplicate.

For the next data set, the system named is S. aureus biofilms. The description is as above. Particulars: 100 ppm of silver, exposed 24 hours. Format: cell-based. The method, then: as §1
The subject of data set [4] is cells.
The subject of data set [5] is cells. Description: Indirect cytotoxicity, agar diffusion method. For orientation: A growth-free zone around the sample is the usual read-out of agar diffusion tests.

On to `O=C([O-])CN(CCN(CC(=O)[O-])CC(=O)[O-])CC(=O)[O-].[Ag+].[Na+].[Zn+2]` [Compound 3, AgZnNaEDTA], for which the “Displacement (%) Silver” value in data set [1] was determined as 82.32 ± 5.63%. Moreover, the “Displacement (%) Zinc” value in data set [1] is reported as 47.33 ± 13.29 %. Besides, the “Number of colonies detected” value in data set [2] and in data set [3] was 0 Cfu/ml throughout. Besides, the entries for the “Kill %” value with P. aeruginosa biofilms and with S. aureus biofilms were 99.97% and 100%, respectively. Also, the LR is listed as 3.51 ± 0.04 with P. aeruginosa biofilms and 3.5 in the data set with P. aeruginosa biofilms (listed as Ag/Zn/NaEDTA). In addition, the percentage viability in the data set with cells [4] is listed as 46.46-63.08%. The “Lysis Index” value with cells [5] (25 ppm), in the data set on cells [5] (50 ppm) and in the data set with cells [5] (100 ppm) was 1 in each case. Further, the “Zone Index” value in the data set with cells [5] (25 ppm) is given as 2; with cells [5] (50 ppm), 2; in the data set on cells [5] (100 ppm), 3.
